Measured values: ChEMBL document CHEMBL1201861, “Genomics of Drug Sensitity in Cancer screening data, Wellcome Trust Sanger Institute”

Assays:
Assay in all cases: cells
Details in all cases: Homo sapiens
CW-2 = type: functional, cell-based
Description: SANGER: Inhibition of human CW-2 cell growth in a cell viability assay.

D-502MG = type: functional, cell-based
Description: SANGER: Inhibition of human D-502MG cell growth in a cell viability assay.

DJM-1 = type: functional, cell-based
Description: SANGER: Inhibition of human DJM-1 cell growth in a cell viability assay.

DOHH-2 = type: functional, cell-based
Description: SANGER: Inhibition of human DOHH-2 cell growth in a cell viability assay.

EKVX = type: functional, cell-based
Description: SANGER: Inhibition of human EKVX cell growth in a cell viability assay.

ES5 = type: functional, cell-based
Description: SANGER: Inhibition of human ES5 cell growth in a cell viability assay.

EW-1 = type: functional, cell-based
Description: SANGER: Inhibition of human EW-1 cell growth in a cell viability assay.

GCIY = type: functional, cell-based
Description: SANGER: Inhibition of human GCIY cell growth in a cell viability assay.

HC-1 = type: functional, cell-based
Description: SANGER: Inhibition of human HC-1 cell growth in a cell viability assay.

HCC2218 = type: functional, cell-based
Description: SANGER: Inhibition of human HCC2218 cell growth in a cell viability assay.

HCE-T = type: functional, cell-based
Description: SANGER: Inhibition of human HCE-T cell growth in a cell viability assay.

HH = type: functional, cell-based
Description: SANGER: Inhibition of human HH cell growth in a cell viability assay.

HOP-62 = type: functional, cell-based
Description: SANGER: Inhibition of human HOP-62 cell growth in a cell viability assay.

HuTu80 = type: functional, cell-based, HUTU-80
Description: SANGER: Inhibition of human HUTU-80 cell growth in a cell viability assay.

IA-LM = type: functional, cell-based
Description: SANGER: Inhibition of human IA-LM cell growth in a cell viability assay.

KARPAS-299 = type: functional, cell-based
Description: SANGER: Inhibition of human KARPAS-299 cell growth in a cell viability assay.

KARPAS-45 = type: functional, cell-based
Description: SANGER: Inhibition of human KARPAS-45 cell growth in a cell viability assay.

KINGS-1 = type: functional, cell-based
Description: SANGER: Inhibition of human KINGS-1 cell growth in a cell viability assay.

KLE = type: functional, cell-based
Description: SANGER: Inhibition of human KLE cell growth in a cell viability assay.

KMOE-2 = type: functional, cell-based
Description: SANGER: Inhibition of human KMOE-2 cell growth in a cell viability assay.

KS-1 = type: functional, cell-based
Description: SANGER: Inhibition of human KS-1 cell growth in a cell viability assay.

KURAMOCHI = type: functional, cell-based
Description: SANGER: Inhibition of human KURAMOCHI cell growth in a cell viability assay.

KY821 = type: functional, cell-based
Description: SANGER: Inhibition of human KY821 cell growth in a cell viability assay.

LAN-6 = type: functional, cell-based
Description: SANGER: Inhibition of human LAN-6 cell growth in a cell viability assay.

LNCaP-Clone-FGC = type: functional, cell-based
Description: SANGER: Inhibition of human LNCaP-Clone-FGC cell growth in a cell viability assay.

LS-1034 = type: functional, cell-based
Description: SANGER: Inhibition of human LS-1034 cell growth in a cell viability assay.

LS-513 = type: functional, cell-based
Description: SANGER: Inhibition of human LS-513 cell growth in a cell viability assay.

LU-134-A = type: functional, cell-based
Description: SANGER: Inhibition of human LU-134-A cell growth in a cell viability assay.

Lu-65 = type: functional, cell-based
Description: SANGER: Inhibition of human LU-65 cell growth in a cell viability assay.

LXF-289 cell line = type: functional, cell-based
Description: SANGER: Inhibition of human LXF-289 cell growth in a cell viability assay.

MHH-NB-11 = type: functional, cell-based
Description: SANGER: Inhibition of human MHH-NB-11 cell growth in a cell viability assay.

MHH-PREB-1 = type: functional, cell-based
Description: SANGER: Inhibition of human MHH-PREB-1 cell growth in a cell viability assay.

MLMA = type: functional, cell-based
Description: SANGER: Inhibition of human MLMA cell growth in a cell viability assay.

MSTO-211H = type: functional, cell-based
Description: SANGER: Inhibition of human MSTO-211H cell growth in a cell viability assay.

Mo = type: functional, cell-based
Description: SANGER: Inhibition of human Mo-T cell growth in a cell viability assay.

NB6 = type: functional, cell-based
Description: SANGER: Inhibition of human NB6 cell growth in a cell viability assay.

NCI-H1155 = type: functional, cell-based
Description: SANGER: Inhibition of human NCI-H1155 cell growth in a cell viability assay.

NCI-H69 = type: functional, cell-based
Description: SANGER: Inhibition of human NCI-H69 cell growth in a cell viability assay.

NCI-H747 = type: functional, cell-based
Description: SANGER: Inhibition of human NCI-H747 cell growth in a cell viability assay.

SNU1 = type: functional, cell-based
Description: SANGER: Inhibition of human NCI-SNU-1 cell growth in a cell viability assay.

NEC8 = type: functional, cell-based
Description: SANGER: Inhibition of human NEC8 cell growth in a cell viability assay.

NOMO-1 = type: functional, cell-based
Description: SANGER: Inhibition of human NOMO-1 cell growth in a cell viability assay.

NOS-1 = type: functional, cell-based
Description: SANGER: Inhibition of human NOS-1 cell growth in a cell viability assay.

OMC-1 = type: functional, cell-based
Description: SANGER: Inhibition of human OMC-1 cell growth in a cell viability assay.

ONS-76 = type: functional, cell-based
Description: SANGER: Inhibition of human ONS-76 cell growth in a cell viability assay.

P30-OHK = type: functional, cell-based
Description: SANGER: Inhibition of human P30-OHK cell growth in a cell viability assay.

QIMR-WIL = type: functional, cell-based
Description: SANGER: Inhibition of human QIMR-WIL cell growth in a cell viability assay.

RPMI-8866 = type: functional, cell-based
Description: SANGER: Inhibition of human RPMI-8866 cell growth in a cell viability assay.

Ramos-2G6-4C10 = type: functional, cell-based
Description: SANGER: Inhibition of human Ramos-2G6-4C10 cell growth in a cell viability assay.

SF-126 = type: functional, cell-based
Description: SANGER: Inhibition of human SF126 cell growth in a cell viability assay.

SK-LMS-1 = type: functional, cell-based
Description: SANGER: Inhibition of human SK-LMS-1 cell growth in a cell viability assay.

SK-NEP-1 = type: functional, cell-based
Description: SANGER: Inhibition of human SK-NEP-1 cell growth in a cell viability assay.

SNU-C2B = type: functional, cell-based
Description: SANGER: Inhibition of human SNU-C2B cell growth in a cell viability assay.

SW 962 = type: functional, cell-based
Description: SANGER: Inhibition of human SW962 cell growth in a cell viability assay.

SW982 = type: functional, cell-based
Description: SANGER: Inhibition of human SW982 cell growth in a cell viability assay.

8-MG-BA = type: functional, cell-based
Description: SANGER: Inhibition of human 8-MG-BA cell growth in a cell viability assay.

A704 = type: functional, cell-based
Description: SANGER: Inhibition of human A704 cell growth in a cell viability assay.

BB30-HNC = type: functional, cell-based
Description: SANGER: Inhibition of human BB30-HNC cell growth in a cell viability assay.

C8166 = type: functional, cell-based
Description: SANGER: Inhibition of human C8166 cell growth in a cell viability assay.

TE-8 = type: functional, cell-based
Description: SANGER: Inhibition of human TE-8 cell growth in a cell viability assay.

TGBC24TKB = type: functional, cell-based
Description: SANGER: Inhibition of human TGBC24TKB cell growth in a cell viability assay.

TK-10 = type: functional, cell-based
Description: SANGER: Inhibition of human TK10 cell growth in a cell viability assay.

U-87 MG = type: functional, cell-based, U-87MG ATCC
Description: SANGER: Inhibition of human U-87-MG cell growth in a cell viability assay.

CCRF-CEM = type: functional, cell-based
Description: SANGER: Inhibition of human CCRF-CEM cell growth in a cell viability assay.

COLO-668 = type: functional, cell-based
Description: SANGER: Inhibition of human COLO-668 cell growth in a cell viability assay.

## Fc1cc(-c2cc[nH]/c(=N/c3ccc(-n4cnc(N5CCOCC5)n4)cc3)n2)cc(N2CCOCC2)c1
CW-2
  IC50: > 5120 nM
D-502MG
  IC50: 1050 nM
DJM-1
  IC50: > 5120 nM
DOHH-2
  IC50: 715 nM
EKVX
  IC50: 2840 nM
ES5
  IC50: > 5120 nM
EW-1
  IC50: 546 nM
GCIY
  IC50: 129 nM
HC-1
  IC50: 301 nM
HCC2218
  IC50: 1090 nM
HCE-T
  IC50: 2790 nM
HH
  IC50: > 5120 nM
HOP-62
  IC50: 248 nM
HuTu80
  IC50: 4230 nM
IA-LM
  IC50: 371 nM
KARPAS-299
  IC50: 380 nM
KARPAS-45
  IC50: 795 nM
KINGS-1
  IC50: > 5120 nM
KLE
  IC50: 1810 nM
KMOE-2
  IC50: 1070 nM
KS-1
  IC50: 159 nM
KURAMOCHI
  IC50: 598 nM
KY821
  IC50: > 5120 nM
LAN-6
  IC50: 1770 nM
LNCaP-Clone-FGC
  IC50: 903 nM
LS-1034
  IC50: 1920 nM
LS-513
  IC50: 1140 nM
LU-134-A
  IC50: 594 nM
Lu-65
  IC50: 1660 nM
LXF-289 cell line
  IC50: 797 nM
MHH-NB-11
  IC50: 936 nM
MHH-PREB-1
  IC50: 430 nM
MLMA
  IC50: 484 nM
MSTO-211H
  IC50: > 5120 nM
Mo
  IC50: 1650 nM
NB6
  IC50: 912 nM
NCI-H1155
  IC50: 2630 nM
NCI-H69
  IC50: 1180 nM
NCI-H747
  IC50: 1050 nM
SNU1
  IC50: 458 nM
NEC8
  IC50: 1010 nM
NOMO-1
  IC50: 463 nM
NOS-1
  IC50: 307 nM
OMC-1
  IC50: 3970 nM
ONS-76
  IC50: 396 nM
P30-OHK
  IC50: 299 nM
QIMR-WIL
  IC50: 343 nM
RPMI-8866
  IC50: 1180 nM
Ramos-2G6-4C10
  IC50: 393 nM
SF-126
  IC50: 3160 nM
SK-LMS-1
  IC50: 453 nM
SK-NEP-1
  IC50: 550 nM
SNU-C2B
  IC50: 637 nM
SW 962
  IC50: > 5120 nM
SW982
  IC50: 121 nM
8-MG-BA
  IC50: 116 nM
A704
  IC50: 441 nM
BB30-HNC
  IC50: 122 nM
C8166
  IC50: 445 nM
TE-8
  IC50: 831 nM
TGBC24TKB
  IC50: 1040 nM
TK-10
  IC50: 1190 nM
U-87 MG
  IC50: 2730 nM
CCRF-CEM
  IC50: 364 nM
COLO-668
  IC50: 376 nM

## CC(O)(CS(=O)(=O)c1ccc(F)cc1)C(=O)Nc1ccc(C#N)c(C(F)(F)F)c1 (stereo not given) [BICALUTAMIDE]
CW-2
  IC50: > 1020 nM
D-502MG
  IC50: > 1020 nM
DJM-1
  IC50: > 1020 nM
DOHH-2
  IC50: > 1020 nM
EKVX
  IC50: > 1020 nM
ES5
  IC50: > 1020 nM
EW-1
  IC50: > 1020 nM
GCIY
  IC50: > 1020 nM
HC-1
  IC50: > 1020 nM
HCC2218
  IC50: > 1020 nM
HCE-T
  IC50: > 1020 nM
HH
  IC50: > 1020 nM
HOP-62
  IC50: > 1020 nM
HuTu80
  IC50: > 1020 nM
IA-LM
  IC50: > 1020 nM
KARPAS-299
  IC50: > 1020 nM
KARPAS-45
  IC50: > 1020 nM
KINGS-1
  IC50: > 1020 nM
KLE
  IC50: > 1020 nM
KMOE-2
  IC50: > 1020 nM
KS-1
  IC50: > 1020 nM
KURAMOCHI
  IC50: > 1020 nM
KY821
  IC50: > 1020 nM
LAN-6
  IC50: > 1020 nM
LNCaP-Clone-FGC
  IC50: > 1020 nM
LS-1034
  IC50: > 1020 nM
LS-513
  IC50: > 1020 nM
LU-134-A
  IC50: > 1020 nM
Lu-65
  IC50: > 1020 nM
LXF-289 cell line
  IC50: > 1020 nM
MHH-NB-11
  IC50: > 1020 nM
MHH-PREB-1
  IC50: > 1020 nM
MLMA
  IC50: > 1020 nM
MSTO-211H
  IC50: > 1020 nM
Mo
  IC50: > 1020 nM
NB6
  IC50: > 1020 nM
NCI-H1155
  IC50: > 1020 nM
NCI-H69
  IC50: > 1020 nM
NCI-H747
  IC50: > 1020 nM
SNU1
  IC50: > 1020 nM
NEC8
  IC50: > 1020 nM
NOMO-1
  IC50: > 1020 nM
NOS-1
  IC50: > 1020 nM
OMC-1
  IC50: > 1020 nM
ONS-76
  IC50: > 1020 nM
P30-OHK
  IC50: > 1020 nM
QIMR-WIL
  IC50: > 1020 nM
RPMI-8866
  IC50: > 1020 nM
Ramos-2G6-4C10
  IC50: > 1020 nM
SF-126
  IC50: > 1020 nM
SK-LMS-1
  IC50: > 1020 nM
SK-NEP-1
  IC50: > 1020 nM
SNU-C2B
  IC50: > 1020 nM
SW 962
  IC50: > 1020 nM
SW982
  IC50: > 1020 nM
8-MG-BA
  IC50: > 1020 nM
A704
  IC50: > 1020 nM
BB30-HNC
  IC50: > 1020 nM
C8166
  IC50: > 1020 nM
TE-8
  IC50: > 1020 nM
TGBC24TKB
  IC50: > 1020 nM
TK-10
  IC50: > 1020 nM
U-87 MG
  IC50: > 1020 nM
CCRF-CEM
  IC50: > 1020 nM
COLO-668
  IC50: > 1020 nM
